pIC50: −log10 of the molar value.
Columns and labels:
hMCH-1R = molecular target: T1, hMCH-1R (Homo sapiens, UniProt Q99705); assay: MCH-1 receptor binding test (125I-MCH binding to membranes of hMCH-1R transfected CHO/Galpha16 cells); conditions: 100 pM 125I-MCH, membranes of CHO/Galpha16 cells stably transfected with hMCH-1R, 60 minutes at ambient temperature
T1 construct: expressed in transfected cells; host or cells: CHO/Galpha16 cells, stably transfected; membrane preparation
Procedure: Membranes from CHO/Galpha16 cells stably transfected with human hMCH-1R are resuspended using a syringe (needle 0.6×25 mm) and diluted in test buffer (50 mM HEPES, 10 mM MgCl2, 2 mM EGTA, pH 7.00; 0.1% bovine serum albumin (protease-free), 0.021% bacitracin, 1 μg/ml aprotinin, 1 μg/ml leupeptin and 1 μM phosphoramidone) to a concentration of 5 to 15 μg/ml. […] After the incubation the reaction is filtered using a cell harvester through 0.5% PEI treated glass fibre filters (GF/B, Unifilter Packard). The membrane-bound radioactivity retained on the filter is then determined after the addition of scintillator substance (Packard Microscint 20) in a measuring device (TopCount of Packard).
The analysis of the concentration binding curve is carried out on the assumption of one receptor binding site.

MCH-1R [1] = molecular target: T2, MCH-1R (Rattus norvegicus, UniProt P97639); design: host or cells: rats (in vivo); conditions: rats; cited from earlier work
T2 sequence (P97639 whole entry): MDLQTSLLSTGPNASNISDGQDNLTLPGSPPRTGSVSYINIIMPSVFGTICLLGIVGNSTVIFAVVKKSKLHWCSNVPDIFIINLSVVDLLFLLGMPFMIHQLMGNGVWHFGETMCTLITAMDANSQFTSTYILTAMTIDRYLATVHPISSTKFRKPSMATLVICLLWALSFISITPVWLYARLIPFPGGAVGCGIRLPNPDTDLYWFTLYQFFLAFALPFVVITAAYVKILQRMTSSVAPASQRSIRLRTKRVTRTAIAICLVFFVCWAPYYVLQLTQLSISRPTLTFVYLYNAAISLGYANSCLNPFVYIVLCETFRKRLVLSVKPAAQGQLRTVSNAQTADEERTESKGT

MCH-1R [2] = molecular target: T2, MCH-1R; design: host or cells: whole animals (in vivo); conditions: animals treated with the antagonist; cited from earlier work

T1 sequence (Q99705 whole entry): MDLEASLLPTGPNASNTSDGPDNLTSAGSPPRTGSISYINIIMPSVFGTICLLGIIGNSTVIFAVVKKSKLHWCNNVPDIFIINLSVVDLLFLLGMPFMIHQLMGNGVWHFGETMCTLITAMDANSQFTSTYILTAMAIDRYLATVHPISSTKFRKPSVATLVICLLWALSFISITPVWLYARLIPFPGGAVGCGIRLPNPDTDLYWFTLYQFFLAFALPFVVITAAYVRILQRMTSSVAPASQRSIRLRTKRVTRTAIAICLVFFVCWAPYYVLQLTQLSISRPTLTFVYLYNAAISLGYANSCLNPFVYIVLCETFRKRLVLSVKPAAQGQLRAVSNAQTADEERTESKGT

Compound | melting point [°C] | further results
CN(C)CC1CCN(CCOc2ccc(C#Cc3ccc(-c4ccc(Cl)cc4)cn3)cc2)CC1.Cl | > 250 | 
CCN(CC)CCOc1ccc(C#Cc2ccc(-c3ccc(F)c(F)c3)cn2)cc1 [Example 1.3, (2-{4-[5-(3,4-difluoro-phenyl)-pyridin-2-ylethynyl]-phenoxy}-ethyl)-diethyl-amine] |  | pIC50 (hMCH-1R): 7.13
Clc1ccc(-c2ccc3nc(C#Cc4ccc(CN5CCCC5)cc4)ccc3c2)cc1 [Example 17, 6-(4-chloro-phenyl)-2-(4-pyrrolidin-1-ylmethyl-phenylethynyl)-quinoline] | 170 to 193 | 
Clc1ccc(-c2ccc3nc(C#Cc4ccc(OCCN5CCCC5)cc4)ccc3c2)cc1 [Example 18, 6-(4-chloro-phenyl)-2-[4-(2-pyrrolidin-1-yl-ethoxy)-phenylethynyl]-quinoline] | 176 to 185 | 
Clc1ccc(-c2ccc3nc(C#Cc4cccc(OCCN5CCCC5)c4)ccc3c2)cc1 [Example 19, 6-(4-chloro-phenyl)-2-[3-(2-pyrrolidin-1-yl-ethoxy)-phenylethynyl]-quinoline] | 114 to 117 | 
Clc1ccc(-c2ccc3nc(C#Cc4ccc5oc(CN6CCCC6)nc5c4)ccc3c2)cc1 [Example 20, 6-(4-chloro-phenyl)-2-(2-pyrrolidin-1-ylmethyl-benzoxazol-5-ylethynyl)-quinoline] | 151 to 153 | 
Clc1ccc(-c2ccc(C#Cc3ccc4oc(CN5CCCC5)nc4c3)nc2)cc1 [Example 21, 5-[5-(4-chloro-phenyl)-pyridin-2-ylethynyl]-2-pyrrolidin-1-ylmethyl-benzoxazole] | 145 | 
COCC1=C(C(=O)OC)[C@H](c2ccc(F)c(F)c2)N(C(=O)NCCCN2CCC(c3cccc(NC(C)=O)c3)CC2)C(=O)N1 [SNAP-7941] |  | effects in behavioural experiments (MCH-1R [1]): anxiolytic and antidepressant effects; body weight in long term trials (MCH-1R [2]): lose significant amounts of weight
